Consider one compound from patent US8362074B2, “Synergistic insecticidal compositions” (priority 1999, dated 2013).

Series [1] has as its system adult male German cockroaches (Blattella germanica). Nature of the series: Treated dog chow bait test on adult male German cockroaches. It is filed as in vivo. The settings on record: 1.00 % active ingredient. Here is the method:
In this evaluation, adult male German cockroaches (Blattella germanica) are used. For each test, a 4.0 g portion of ground Purina Dog Chow (Hi-Pro Glo®) is treated with an acetone solution of test compound alone or in combination with a second test compound. After treatment, the acetone is evaporated and the treated dog chow is placed in a ¾ oz plastic cup which is placed in a harborage made of folded sheets of blotter paper placed in a plastic box (16″ L×11″ W×6″ H). The plastic box (test arena) is also fitted with a 1 oz narrow mouth bottle with 2 dental wicks inserted at the mouth. A control box is prepared in the same manner using ground dog chow which has been treated with reagent grade acetone. Each treatment is replicated three times. Into each test arena are placed 20 healthy adult male cockroaches which have been reared in an insectary. The test arenas are then stored at 76° F. and mortality is determined daily by visual examination.

The subject of series [2] is Helicoverpa zea (cotton bollworm) larvae. Nature of the series: Treated artificial diet surface test on cotton bollworm larvae. It is filed as in vivo. How it is done:
In this evaluation, Helicoverpa zea (cotton bollworm) larvae are obtained from a laboratory colony. Test compounds are dissolved in 1:1 v/v acetone/water. Plastic bioassay trays (C-D International, Pitman, N.J.) are used as test arenas. Each tray contains 32 open-faced wells, 4.0×4.0×2.5 cm. A portion (5 ml) of a wheat germ-soybean flour-based artificial diet (Southland Products, Lake Village, Ark.) is poured into each well. After the diet hardened, 0.4 ml of test solution is pipetted onto the diet surface in each well. Test solutions are evenly spread over surfaces of diet by picking up the tray and gently tilting it from side to side. Trays are then held in a vented area for about 2 h, until water is no longer pooled on diet surfaces. A single 4-day-old H. zea larva is then placed on the surface of diet in each well. After larval infestation, each well is covered with an adhesive, vented, clear plastic sheet.
All test arenas are held under constant fluorescent light and a temperature of about 27° C. for duration of the assay. Larval mortality is determined at 2, 3, 4 and 7 days after treatment. […] A total of 32 insects were tested for each treatment.

Turning to `CC1(C)CNC(=NN=C(/C=C/c2ccc(C(F)(F)F)cc2)/C=C/c2ccc(C(F)(F)F)cc2)NC1` [Compound B, hydramethylnon], the mortality (in general, the percentage killed) at 1 % strength in series [1] (72 h, 3 days after treatment) is 0%; in series [1] (96 h, 4 days after treatment) it was 5%; in series [1] (120 h, 5 days after treatment) it was 28.3%; in series [1] (144 h, 6 days after treatment), 71.7%; in series [1] (168 h, 7 days after treatment), 90%; in series [1] (192 h, 8 days after treatment) it was 93.3%. In addition, the “% Mortality” value in series [2] (100 OB/ml, 2 days after treatment) was determined as 3.1%; in series [2] (100 OB/ml, 3 days after treatment), 3.1%; in series [2] (100 OB/ml, 4 days after treatment), 3.1%; in series [2] (100 OB/ml, 7 days after treatment) it was 15.6%; in series [2] (500 OB/ml, 2 days after treatment) it was 0.0%; in series [2] (500 OB/ml, 3 days after treatment), 9.4%. Moreover, the “% Mortality” value in series [2] (500 OB/ml, 4 days after treatment) was found to be 18.8%; in series [2] (500 OB/ml, 7 days after treatment) it was 40.6%; in series [2] (1000 OB/ml, 2 days after treatment), 3.1%; in series [2] (1000 OB/ml, 3 days after treatment), 34.4%; in series [2] (1000 OB/ml, 4 days after treatment) it was 50.5%; in series [2] (1000 OB/ml, 7 days after treatment), 62.5%.
